Target: T1, human insuline receptor (Ins-R) kinase domain (Homo sapiens, UniProt P06213)
T1 construct: GST-tagged recombinant kinase domain of the human insuline receptor; GST; purchased ProQinase, Freiburg, Germany; host or cells: SF-9 cells
Test: InsR HTRF assay (assay 4)
Format: biochemical
Conditions: IC50 assay 4/IC50 assay 2
Procedure: Inhibitory activity of compounds against the kinase activity of the insulin receptor was quantified employing the Ins-R HTRF assay as described in the following paragraphs.
GST-tagged recombinant kinase domain of the human insuline receptor (Ins-R, purchase from ProQinase, Freiburg, Germany) expressed in SF-9 cells was used as kinase. As substrate for the kinase reaction biotinylated poly-(Glu,Tyr) (Cis biointernational, France) was used.
Ins-R was incubated for 20 min at 22° C. in the presence of different concentrations of test compounds in 5 μl assay buffer [50 mM Hepes/NaOH pH 7, 15 mM MnCl2, 1 mM dithiothreitol, 0.1 μM sodium ortho-vanadate, 0.015% (v/v) PEG20000, 10 μM adenosine-tri-phosphate (ATP), 0.3 μg/ml substrate, 1% (v/v) dimethylsulfoxide]. The concentration of Ins-R was adjusted depending of the activity of the enzyme lot and was chosen appropriate to have the assay in the linear range, typical concentrations were in the range of 10 pg/μl. The reaction was stopped by the addition of 5 μl of a solution of HTRF detection reagents (0.1 μM streptavidine-XLent and 1 nM PT66-Eu-Chelate, an europium-chelate labelled anti-phosphotyrosine antibody from Perkin Elmer) in an aqueous EDTA-solution (80 mM EDTA, 0.2% (w/v) bovine serum albumin in 50 mM HEPES/NaOH pH 7.0).
The resulting mixture was incubated 1 h at 22° C. to allow the binding of the biotinylated phosphorylated peptide to the streptavidine-XLent and the PT66-Eu-Chelate. Subsequently the amount of phosphorylated substrate was evaluated by measurement of the resonance energy transfer from the PT66-Eu-Chelate to the streptavidine-XLent. Therefore, the fluorescence emissions at 620 nm and 665 nm after excitation at 350 nm was measured in a HTRF reader, e.g. a Rubystar (BMG Labtechnologies, Offenburg, Germany) or a Viewlux (Perkin-Elmer). The ratio of the emissions at 665 nm and at […] was taken as the measure for the amount of phosphorylated substrate. The data were normalised (enzyme reaction without inhibitor=0% inhibition, all other assay components but no enzyme=100% inhibition) and IC50 values were calculated by a 4 parameter fit using an inhouse software.

T1 sequence (P06213 1023-1298 limits assumed): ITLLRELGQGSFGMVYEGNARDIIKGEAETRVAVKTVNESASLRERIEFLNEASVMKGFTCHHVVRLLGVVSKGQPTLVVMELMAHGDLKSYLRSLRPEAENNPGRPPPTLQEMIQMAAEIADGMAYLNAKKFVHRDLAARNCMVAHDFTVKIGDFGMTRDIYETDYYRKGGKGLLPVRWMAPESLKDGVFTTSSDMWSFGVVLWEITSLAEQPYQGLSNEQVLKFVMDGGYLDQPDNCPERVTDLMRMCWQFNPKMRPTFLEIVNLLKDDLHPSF

Row | Selectivity vs. InsR | SMILES
1 | >20 fold | CCc1cccc(NC(=O)Nc2ccc(-c3cc(C(C)(C)C)nc4[nH]ncc34)cc2)c1 [1.1, 1-[4-(6-tert-Butyl-1H-pyrazolo[3,4-b]pyridin-4-yl)-phenyl]-3-(3-ethylphenyl)-urea]
2 | >20 fold | CN1CCN(Cc2ccc(NC(=O)Nc3ccc(-c4ccnc5c4cnn5C)cc3)cc2C(F)(F)F)CC1 [1.24, 1-[4-(4-Methyl-piperazin-1-ylmethyl)-3-trifluoromethyl-phenyl]-3-[4-(1-methyl-1H-pyrazolo[3,4-b]pyridin-4-yl)-phenyl]-urea]
3 | >20 fold | Cn1ncc2c(-c3ccc(NC(=O)Nc4cccc(C(F)(F)F)c4)cc3)cc(CN3CCOCC3)nc21 [3.2, 1-[4-(1-Methyl-6-morpholin-4-ylmethyl-1H-pyrazolo[3,4-b]pyridin-4-yl)-phenyl]-3-(3-trifluoromethyl-phenyl)-urea]
4 | >20 fold | Cc1ccc(F)c(NC(=O)Nc2ccc(-c3cc(CN4CCOCC4)nc4c3cnn4C)cc2)c1 [3.5, 1-(2-Fluoro-5-methyl-phenyl)-3-[4-(1-methyl-6-morpholin-4-ylmethyl-1H-pyrazolo[3,4-b]pyridin-4-yl)-phenyl]-urea]
5 | >20 fold | CC(C)c1cc(-c2ccc(NC(=O)Nc3cccc(C(F)(F)F)c3)cc2)c2cnn(C)c2n1 [1.3, 1-[4-(6-Isopropyl-1-methyl-1H-pyrazolo[3,4-b]pyridin-4-yl)-phenyl]-3-(3-trifluoromethyl-phenyl)-urea]
6 | >20 fold | Cc1cc(-c2ccc(NC(=O)Nc3cc(F)cc(C(F)(F)F)c3)cc2)c2cnn(C)c2n1 [2.4, 1-[4-(1,6-Dimethyl-1H-pyrazolo[3,4-b]pyridin-4-yl)-phenyl]-3-(3-fluoro-5-trifluoromethyl-phenyl)-urea]
7 | >20 fold | Cn1ncc2c(-c3ccc(NC(=O)Nc4cccc(C(F)(F)F)c4)cc3)cc(C3CCCCC3)nc21 [1.38, 1-[4-(6-Cyclohexyl-1-methyl-1H-pyrazolo[3,4-b]pyridin-4-yl)-phenyl]-3-(3-trifluoromethyl-phenyl)-urea]
8 | >20 fold | CCc1cccc(NC(=O)Nc2ccc(-c3cc(CN4CCOCC4)nc4c3cnn4C)cc2)c1 [3.4, 1-(3-Ethyl-phenyl)-3-[4-(1-methyl-6-morpholin-4-ylmethyl-1H-pyrazolo[3,4-b]pyridin-4-yl)-phenyl]-urea]
9 | >20 fold | Cc1cc(-c2ccc(NC(=O)Nc3cccc(C(F)(F)F)c3)cc2)c2cn[nH]c2n1 [1.18, 1-[4-(6-Methyl-1H-pyrazolo[3,4-b]pyridin-4-yl)-phenyl]-3-(3-trifluoromethyl-phenyl)-urea]
10 | >20 fold | Cc1ccc(F)c(NC(=O)Nc2ccc(-c3ccnc4[nH]ncc34)cc2)c1 [1.22, 1-(2-Fluoro-5-methyl-phenyl)-3-[4-(1H-pyrazolo[3,4-b]pyridin-4-yl)-phenyl]-urea]
11 | >20 fold | Cc1cccc(NC(=O)Nc2ccc(-c3cc(C(C)(C)C)nc4[nH]ncc34)cc2)c1 [1.11, 1-[4-(6-tert-Butyl-1H-pyrazolo[3,4-b]pyridin-4-yl)-phenyl]-3-m-tolyl-urea]
12 | >20 fold | CN(C)C(=O)C1(c2cc(-c3ccc(NC(=O)Nc4cccc(C(F)(F)F)c4)cc3)c3cnn(C)c3n2)CC1 [1.26, 1-(1-Methyl-4-{4-[3-(3-trifluoromethyl-phenyl)-ureido]-phenyl}-1H-pyrazolo[3,4-b]pyridin-6-yl)-cyclopropane-carboxylic acid dimethylamide]
13 | >20 fold | Cc1ccc(F)c(NC(=O)Nc2ccc(-c3cc(C4(C(=O)N(C)C)CC4)nc4c3cnn4C)cc2)c1 [1.29, 1-(4-{4-[3-(2-Fluoro-5-methyl-phenyl)-ureido]-phenyl}-1-methyl-1H-pyrazolo[3,4-b]pyridin-6-yl)-cyclopropane-carboxylic acid dimethylamide]
14 | >20 fold | Cc1cc(-c2ccc(NC(=O)Nc3ccc(F)c(C(F)(F)F)c3)cc2)c2cnn(C)c2n1 [2.5, 1-[4-(1,6-Dimethyl-1H-pyrazolo[3,4-b]pyridin-4-yl)-phenyl]-3-(4-fluoro-3-trifluoromethyl-phenyl)-urea]
15 | >20 fold | CN1CCC(Oc2ccc(NC(=O)Nc3ccc(-c4ccnc5c4cnn5C)cc3)cc2C(F)(F)F)CC1 [1.23, 1-[4-(1-Methyl-piperidin-4-yloxy)-3-trifluoromethyl-phenyl]-3-[4-(1-methyl-1H-pyrazolo[3,4-b]pyridin-4-yl)-phenyl]-urea]
16 | >20 fold | Cn1ncc2c(-c3ccc(NC(=O)Nc4cccc(C(F)(F)F)c4)cc3)ccnc21 [1.4, 1-[4-(1-Methyl-1H-pyrazolo[3,4-b]pyridin-4-yl)-phenyl]-3-(3-trifluoromethyl-phenyl)-urea]
17 | >20 fold | CN1CCN(Cc2ccc(NC(=O)Nc3ccc(-c4cc(C(C)(C)C)nc5[nH]ncc45)cc3)cc2C(F)(F)F)CC1 [1.15, 1-[4-(6-tert-Butyl-1H-pyrazolo[3,4-b]pyridin-4-yl)-phenyl]-3-[4-(4-methyl-piperazin-1-ylmethyl)-3-trifluoromethyl-phenyl]-urea]
18 | >20 fold | O=C(Nc1ccc(-c2ccnc3[nH]ncc23)cc1)Nc1cccc(C(F)(F)F)c1 [1.20, 1-[4-(1H-Pyrazolo[3,4-b]pyridin-4-yl)-phenyl]-3-(3-trifluoromethyl-phenyl)-urea]
19 | >20 fold | CN1CCN(Cc2ccc(NC(=O)Nc3ccc(-c4ccnc5[nH]ncc45)cc3)cc2C(F)(F)F)CC1 [1.33, 1-[4-(4-Methyl-piperazin-1-yl-methyl)-3-trifluoromethyl-phenyl]-3-[4-(1H-pyrazolo[3,4-b]pyridin-4-yl)-phenyl]-urea]
20 | >20 fold | CC(C)c1cc(-c2ccc(NC(=O)Nc3cccc(C(F)(F)F)c3)cc2)c2cn[nH]c2n1 [1.2, 1-[4-(6-Isopropyl-1H-pyrazolo[3,4-b]pyridin-4-yl)-phenyl]-3-(3-trifluoromethyl-phenyl)-urea]
21 | >20 fold | COc1ccc(C(F)(F)F)cc1NC(=O)Nc1ccc(-c2cc(C)nc3c2cnn3C)cc1 [2.7, 1-[4-(1,6-Dimethyl-1H-pyrazolo[3,4-b]pyridin-4-yl)-phenyl]-3-(2-methoxy-5-trifluoromethyl-phenyl)-urea]
22 | >20 fold | Cc1ccc(F)c(NC(=O)Nc2ccc(-c3ccnc4c3cnn4C)cc2)c1 [1.7, 1-(2-Fluoro-5-methyl-phenyl)-3-[4-(1-methyl-1H-pyrazolo[3,4-b]pyridin-4-yl)-phenyl]-urea]
23 | >20 fold | Cn1ncc2c(-c3ccc(NC(=O)Nc4cc(C(F)(F)F)ccc4F)cc3)ccnc21 [1.8, 1-(2-Fluoro-5-trifluoromethyl-phenyl)-3-[4-(1-methyl-1H-pyrazolo[3,4-b]-pyridin-4-yl)-phenyl]-urea]
24 | >20 fold | Cn1ncc2c(-c3ccc(NC(=O)Nc4cccc(C(F)(F)F)c4)cc3)cc(C3CCC3)nc21 [1.37, 1-[4-(6-Cyclobutyl-1-methyl-1H-pyrazolo[3,4-b]pyridin-4-yl)-phenyl]-3-(3-trifluoromethyl-phenyl)-urea]

Source: patent US7846928B2, “Substituted pyrazolopyridines and salts thereof, pharmaceutical compositions comprising same, methods of preparing same and uses of same” (Bayer Schering Pharma AG, priority 2006, dated 2010)
